Calls of active or inactive are those of the source. No cut-off for these calls is given here.
Tests used:
[1] = tested on: MDA-MB-468; experiment: Cytotoxicity against human MDA-MB-468 cells harboring constitutively harboring activated STAT3 assessed as inhibition of cell viability at 10 uM after 72 hrs by MTT assay; assay type: functional; details: MDA-MB-468, 72 h
[2] = target: T1, Signal transducer and activator of transcription 3 (Homo sapiens, UniProt P40763); experiment: Inhibition of STAT3 in IL-6-stimulated human HepG2 cells at 10 uM treated for 1 hr prior to IL-6 challenge measured after 5.5 hrs by luciferase reporter gene assay; assay type: cell-based
T1 sequence (P40763 whole entry): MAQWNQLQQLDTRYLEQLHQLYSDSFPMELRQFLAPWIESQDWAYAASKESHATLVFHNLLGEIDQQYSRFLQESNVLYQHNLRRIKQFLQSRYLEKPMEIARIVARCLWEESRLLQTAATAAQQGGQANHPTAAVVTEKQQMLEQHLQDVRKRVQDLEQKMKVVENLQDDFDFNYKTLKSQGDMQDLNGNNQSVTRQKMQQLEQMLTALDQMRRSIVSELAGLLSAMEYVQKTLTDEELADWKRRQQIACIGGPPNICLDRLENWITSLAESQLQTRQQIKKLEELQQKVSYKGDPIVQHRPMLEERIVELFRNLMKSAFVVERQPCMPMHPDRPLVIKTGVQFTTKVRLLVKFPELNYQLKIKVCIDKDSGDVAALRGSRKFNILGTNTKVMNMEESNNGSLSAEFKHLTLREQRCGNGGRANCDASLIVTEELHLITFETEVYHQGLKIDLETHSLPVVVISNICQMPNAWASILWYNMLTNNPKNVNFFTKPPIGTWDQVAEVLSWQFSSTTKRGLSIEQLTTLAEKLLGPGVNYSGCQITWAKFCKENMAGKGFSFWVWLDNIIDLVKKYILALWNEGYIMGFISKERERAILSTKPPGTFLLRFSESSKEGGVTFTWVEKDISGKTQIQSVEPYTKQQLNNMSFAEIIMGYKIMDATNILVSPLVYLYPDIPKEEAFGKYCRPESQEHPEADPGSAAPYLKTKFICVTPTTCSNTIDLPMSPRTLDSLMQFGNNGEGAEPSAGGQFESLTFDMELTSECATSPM

[3] = target: Tyrosine-protein kinase JAK2 (Homo sapiens) (UniProt O60674); experiment: Effect on JAK2 phosphorylation in IL-6 stimulated human HepG2 cells at 50 uM treated for 6 hrs before IL-6 stimulation measured after 15 mins by Western blot analysis; assay type: cell-based
Tyrosine-protein kinase JAK2 (Homo sapiens), sequence (O60674 whole entry): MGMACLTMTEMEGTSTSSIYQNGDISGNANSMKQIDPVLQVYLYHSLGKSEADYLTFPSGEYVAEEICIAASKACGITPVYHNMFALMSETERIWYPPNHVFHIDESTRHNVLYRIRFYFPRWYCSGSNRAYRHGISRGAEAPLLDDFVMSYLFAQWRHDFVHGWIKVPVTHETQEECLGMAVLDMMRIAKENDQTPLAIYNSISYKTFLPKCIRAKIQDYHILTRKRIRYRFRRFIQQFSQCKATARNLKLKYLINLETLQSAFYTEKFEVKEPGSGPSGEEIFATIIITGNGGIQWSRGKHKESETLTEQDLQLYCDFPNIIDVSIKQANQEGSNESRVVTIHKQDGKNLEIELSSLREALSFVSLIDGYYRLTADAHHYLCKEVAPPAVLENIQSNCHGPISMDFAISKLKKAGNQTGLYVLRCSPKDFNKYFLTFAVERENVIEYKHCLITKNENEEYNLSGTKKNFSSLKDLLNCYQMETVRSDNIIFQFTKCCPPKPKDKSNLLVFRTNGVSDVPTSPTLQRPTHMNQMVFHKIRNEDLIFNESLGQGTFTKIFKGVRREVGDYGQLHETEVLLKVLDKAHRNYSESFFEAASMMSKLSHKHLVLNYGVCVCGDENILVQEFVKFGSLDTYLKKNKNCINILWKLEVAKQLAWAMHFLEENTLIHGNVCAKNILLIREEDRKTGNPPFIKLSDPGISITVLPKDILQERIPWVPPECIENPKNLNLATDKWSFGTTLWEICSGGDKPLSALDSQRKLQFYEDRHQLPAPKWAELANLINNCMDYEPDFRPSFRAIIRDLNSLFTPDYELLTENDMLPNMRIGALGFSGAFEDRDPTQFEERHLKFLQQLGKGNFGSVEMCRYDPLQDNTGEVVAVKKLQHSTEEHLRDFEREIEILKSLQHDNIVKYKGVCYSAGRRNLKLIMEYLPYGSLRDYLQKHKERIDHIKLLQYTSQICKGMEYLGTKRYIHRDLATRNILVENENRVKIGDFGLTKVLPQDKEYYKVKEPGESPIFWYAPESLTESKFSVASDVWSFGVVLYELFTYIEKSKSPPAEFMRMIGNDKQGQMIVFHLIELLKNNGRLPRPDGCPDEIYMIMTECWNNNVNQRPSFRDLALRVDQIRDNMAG

[4] = tested on: HepG2; experiment: Effect on JAK2 level in IL-6 stimulated human HepG2 cells at 50 uM treated for 6 hrs before IL-6 stimulation measured after 15 mins by Western blot analysis; assay type: functional, cell-based
[5] = tested on: HepG2; experiment: Effect on STAT3 level in IL-6 stimulated human HepG2 cells at 50 uM treated for 6 hrs before IL-6 stimulation measured after 15 mins by Western blot analysis; assay type: functional, cell-based
[6] = target: T1, Signal transducer and activator of transcription 3; experiment: Inhibition of STAT3 phosphorylation at Tyr705 in IL-6 stimulated human HepG2 cells at 50 uM treated for 6 hrs before IL-6 stimulation measured after 15 mins by Western blot analysis; assay type: cell-based
[7] = tested on: MDA-MB-468; experiment: Cytotoxicity against human MDA-MB-468 cells harboring constitutively harboring activated STAT3 assessed as inhibition of cell viability after 72 hrs by MTT assay; assay type: functional, cell-based; details: MDA-MB-468, 72 h
[8] = organism: Homo sapiens; experiment: Inhibition of TNF-alpha-stimulated NF-kappaB (unknown origin) activity at 10 uM
[9] = target: T2, Signal transducer and activator of transcription 1-alpha/beta (Homo sapiens) (UniProt P42224); experiment: Inhibition of IFN-gamma-stimulated STAT1 (unknown origin) activity at 10 uM
T2 sequence (whole entry): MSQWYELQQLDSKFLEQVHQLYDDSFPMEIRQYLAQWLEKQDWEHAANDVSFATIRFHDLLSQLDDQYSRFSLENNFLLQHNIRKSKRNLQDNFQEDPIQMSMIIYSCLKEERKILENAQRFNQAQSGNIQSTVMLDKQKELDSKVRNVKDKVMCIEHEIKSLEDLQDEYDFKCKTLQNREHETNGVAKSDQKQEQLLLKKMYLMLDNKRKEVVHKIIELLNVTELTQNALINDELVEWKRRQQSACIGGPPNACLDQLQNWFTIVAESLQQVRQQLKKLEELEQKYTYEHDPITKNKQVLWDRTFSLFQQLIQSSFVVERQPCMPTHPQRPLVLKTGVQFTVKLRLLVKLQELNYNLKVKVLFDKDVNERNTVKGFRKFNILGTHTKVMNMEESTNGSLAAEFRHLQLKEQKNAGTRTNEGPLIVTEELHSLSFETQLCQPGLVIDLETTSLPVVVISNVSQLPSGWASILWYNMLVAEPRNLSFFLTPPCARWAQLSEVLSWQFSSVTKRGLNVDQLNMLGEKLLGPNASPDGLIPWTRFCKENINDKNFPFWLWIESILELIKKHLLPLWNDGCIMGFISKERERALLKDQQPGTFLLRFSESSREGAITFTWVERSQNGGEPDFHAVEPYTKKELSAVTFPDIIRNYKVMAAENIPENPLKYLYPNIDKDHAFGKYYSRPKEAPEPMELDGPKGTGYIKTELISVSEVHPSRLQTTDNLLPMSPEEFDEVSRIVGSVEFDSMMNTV

[10] = target: T1, Signal transducer and activator of transcription 3; experiment: Inhibition of STAT3 phosphorylation at Tyr705 in IL-6 stimulated human HepG2 cells treated for 6 hrs before IL-6 stimulation measured after 15 mins by Western blot analysis; assay type: cell-based
[11] = target: T1, Signal transducer and activator of transcription 3; experiment: Inhibition of STAT3 in IL-6-stimulated human HepG2 cells treated for 1 hr prior to IL-6 challenge measured after 5.5 hrs by luciferase reporter gene assay; assay type: cell-based

inhibition [2] [%] | Structure (SMILES) | inhibition at 10 µM [1] [%] | also measured
25.8 | CCc1cccc(CC)c1NC(=O)CSc1nc2ccc(NC(=O)c3ccccc3OC)cc2s1 | 23.9 | 
 | CCc1cccc(CC)c1NC(=O)CSc1nc2ccc(NC(=O)Cc3ccccc3OC)cc2s1 | -12.3 | 
 | COc1ccc(C(=O)Nc2ccc3nc(SCC(=O)Nc4ccc(F)c(Cl)c4)sc3c2)cc1 | 2.47 | 
21.5 | COc1ccccc1C(=O)Nc1ccc2nc(SCC(=O)Nc3c(C)cccc3C)sc2c1 | 39 | 
 | CCc1cccc(CC)c1NC(=O)CSc1nc2ccc(NC(=O)c3ccc(OC)cc3)cc2s1 | -0.77 | 
51.1 | CCCC(C)Oc1ccc(C(=O)Nc2ccc3nc(SCC(=O)N[C@@H](C)c4ccccc4)sc3c2)cc1 (some centres undefined) | 51.4 | Activity [3]: inactive; Activity [4]: inactive; Activity [5]: inactive; inhibition [6]: Active; IC50 [7]: 16.1 µM
18.9 | CCCCCOc1ccc(C(=O)Nc2ccc3nc(SCC(=O)Nc4c(CC)cccc4CC)sc3c2)cc1 | 24.1 | 
21.5 | CCCCOc1ccc(C(=O)Nc2ccc3nc(SC(C)C(=O)Nc4c(C)cc(C)cc4C)sc3c2)cc1 (centres undefined) |  | 
39.1 | CCc1cccc(CC)c1NC(=O)CSc1nc2ccc(NC(=O)c3ccncc3)cc2s1 | 12.6 | 
-5.71 | CCc1cccc(CC)c1NC(=O)CSc1nc2ccc(NC(=O)c3ccc([N+](=O)[O-])cc3)cc2s1 | 6.13 | 
23.8 | COc1ccc(C(=O)Nc2ccc3nc(SCC(=O)NCc4ccc([N+](=O)[O-])cc4)sc3c2)cc1 | -20.4 | 
-5.89 | COc1ccc(C(=O)Nc2ccc3nc(SCC(=O)Nc4c(C)cccc4C)sc3c2)cc1 | 5.01 | 
2.36 | CCC(=O)Nc1ccc2nc(SCC(=O)Nc3c(CC)cccc3CC)sc2c1 | -12 | 
24 | COc1ccc(NCc2nnc(SCC(=O)Nc3cccc4ccccc34)n2-c2ccc(OC)cc2)cc1 |  | 
38.5 | COc1ccc(C(=O)Nc2ccc(C(=O)OCC(=O)c3cccc([N+](=O)[O-])c3)cc2)cc1OC |  | inhibition [8]: -4.32%; inhibition [9]: 13.8%
-0.31 | COc1ccc(C(=O)Nc2ccc3nc(SCC(=O)N[C@H](C)c4ccccc4)sc3c2)cc1 | -56.8 | 

inhibition [2] [%] | Structure (SMILES) | inhibition at 10 µM [1] [%] | also measured
 | O=C(CSc1nc2ccc(NC(=O)c3ccccc3)cc2s1)Nc1ccc(F)c(Cl)c1 | 9.04 | 
30.7 | CCCCCOc1ccc(C(=O)Nc2ccc3nc(SCC(=O)N[C@@H](C)c4ccccc4)sc3c2)cc1 | 61.1 | 
25.8 | CCCC(C)Oc1ccc(C(=O)Nc2ccc3nc(SCC(=O)Nc4c(CC)cccc4CC)sc3c2)cc1 (centres undefined) | 34.9 | 
 | COc1ccc(C(=O)Nc2ccc3nc(SCC(=O)NCc4ccc(F)cc4)sc3c2)cc1 | 5.48 | 
-7.98 | CCc1cccc(CC)c1NC(=O)CSc1nc2ccc(NC(=O)C(C)Cl)cc2s1 (centres undefined) | -4.54 | 
-8.31 | CCc1cccc(CC)c1NC(=O)CSc1nc2ccc(NC(=O)C(C)C)cc2s1 | -17.4 | 
34.8 | CCC(Sc1nc2ccc(NC(=O)c3ccc(OC)cc3)cc2s1)C(=O)Nc1ccc(Br)cc1 (centres undefined) | 66.4 | Activity [3]: inactive; Activity [4]: inactive; Activity [5]: inactive; inhibition [6]: Active; IC50 [7]: 8.83 µM; inhibition [9]: 6.17%
11.5 | C[C@H](NC(=O)CSc1nc2ccc(NC(=O)c3ccc(OCc4ccccc4)cc3)cc2s1)c1ccccc1 | 3.02 | 
30.7 | COc1cc(/C=C/C(=O)CC(=O)/C=C/c2ccc(O)c(OC)c2)ccc1O [CURCUMIN] | 3.88 | inhibition [10]: Dose-dependent effect; IC50 [7]: 196 µM; IC50 [11]: 19.2 µM
22.6 | CCc1cccc(CC)c1NC(=O)CSc1nc2ccc(NC(=O)c3ccc(OCc4ccccc4)cc3)cc2s1 | 44.6 | 
14.4 | CCc1cccc(CC)c1NC(=O)CSc1nc2ccc(NC(=O)c3cccnc3)cc2s1 | 8.23 | 
-9.23 | CCc1cccc(CC)c1NC(=O)CSc1nc2ccc(NC(=O)C3CC3)cc2s1 | 32.4 | 
43 | COc1ccc(C(=O)Nc2ccc3nc(SCC(=O)N[C@@H](C)c4ccccc4)sc3c2)cc1 | -44.7 | 
30.9 | CCCCOc1ccc(C(=O)Nc2ccc3nc(SCC(=O)N[C@@H](C)c4ccccc4)sc3c2)cc1 | 57.2 | 
49.5 | CCCCOc1ccc(C(=O)Nc2ccc3nc(SCC(=O)Nc4c(CC)cccc4CC)sc3c2)cc1 |  | 

Reference: ChEMBL document CHEMBL2331222, “Discovery of novel inhibitors of signal transducer and activator of transcription 3 (STAT3) signaling pathway by virtual screening” (Eur J Med Chem, 2013)
